Consider two molecules from patent US7524927B2, “Compositions, method and kits relating to deletion mutations of immunodeficiency virus gp120 hypervariable regions” (priority 2003, dated 2009).

Where two headings read alike, the source gives them in different places.

One experiment concerns the target T1, CXCR4 (Homo sapiens, UniProt P61073).
T1 construct: expressed in transfected cells
In kind it is binding. The procedure:
Western blot binding assay. […] In this assay, the gp120 of interest is added to cells expressing the desired coreceptor either in the absence or presence of sCD4. After binding for 30 min, the cells are washed, lysed, and bound gp120 detected by western blot.

Another experiment relates to ΔV3(6,6) virus. The settings on record: SupT1 cells. An excerpt: (§1) Each virus was innoculated onto SupT1 cells in the presence of varying concentrations of AMD3100 (0, 10, 100, 1,000, and 10,000 nm as indicated).
(§2) This bicyclam specifically blocks CXCR4 function and its ability to serve as a receptor for X4 Envs by binding to two Asp residues at the base of the CXCR4 second and […] extracellular loops.

Another experiment has as its system ΔV1/V2; ΔV3(6,6) virus. The note with it: SupT1 cells.
Excerpt: as §2

The test system of experiment [1] is HIV-2/VCP virus (wildtype VCP). The experiment is described as follows: microbe, parasite or virus in culture.
Excerpt: as §1, §2

The next experiment relates to VCP Env pseudotype. The settings on record: U87/CD4/CXCR4 target cells. The procedure: (§3) FIG. 9B is a diagram depicting AMD3100 sensitivity for viral pseudotypes containing the indicated Envs as indicated, i.e., VCP, V3(6,6); V1/V2, and V3(6,6). Sensitivity to AMD3100 was assessed using U87/CD4/CXCR4 target cells. Two different Env clones comprising deletion of V3(6,6) in combination with deletion of V1/V2 are depicted.

In another experiment the test system is V3(6,6) Env pseudotype. The settings on record: U87/CD4/CXCR4 target cells. As to the method: as §3
The subject of experiment [2] is V3(6,6); V1/V2 Env pseudotypes. The note with it: U87/CD4/CXCR4 target cells; two Env clones. As to the method:
as §3

T1 sequence (P61073 whole entry): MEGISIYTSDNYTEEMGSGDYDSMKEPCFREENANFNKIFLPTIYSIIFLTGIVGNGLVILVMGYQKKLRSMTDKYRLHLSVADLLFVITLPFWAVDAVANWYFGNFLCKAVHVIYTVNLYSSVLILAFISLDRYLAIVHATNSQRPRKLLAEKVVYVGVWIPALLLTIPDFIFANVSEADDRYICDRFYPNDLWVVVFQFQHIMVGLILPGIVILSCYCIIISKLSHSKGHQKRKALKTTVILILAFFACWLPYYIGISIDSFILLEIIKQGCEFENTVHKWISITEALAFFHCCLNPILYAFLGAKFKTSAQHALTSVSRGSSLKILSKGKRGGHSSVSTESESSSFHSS

In the case of “SDF-1: natural chemokine ligand of CXCR4 [reference compound]”, the “Inhibition of VCP gp120 binding to CXCR4-expressing cells” value in the experiment with CXCR4 (VCP gp120) was “inhibitable”.

The IC50 is the midpoint of a concentration-inhibition curve. For `c1cc(CN2CCCNCCNCCCNCC2)ccc1CN1CCCNCCNCCCNCC1` [AMD3100], the “Resistance of virus to AMD3100” value in the experiment with ΔV3(6,6) virus (adapted (p16) virus, up to 10,000 nm AMD3100) is listed as “completely resistant”. In addition, the “AMD3100 concentration at which virus could not be blocked” value with ΔV3(6,6) virus (ΔV3(6,6) virus) and in the experiment with ΔV1/V2; ΔV3(6,6) virus was “greater than 10,000 nM” each time. For the same molecule, the “Inhibition of VCP gp120 binding to CXCR4-expressing cells” value on CXCR4 was “inhibitable”. In addition, in experiment [1] (0, 10, 100, 1,000, and 10,000 nm AMD3100, SupT1 cells), the “Sensitivity of virus to AMD3100” value was “sensitive”. Further, the IC50 in experiment [1] (Human immunodeficiency virus 2, SUP-T1, read-out: IC50 for inhibition of infection of SupT1 cells) is roughly 0.05 µM. For the same molecule, the “AMD3100 sensitivity of pseudotype” value with VCP Env pseudotype is on record as “sensitivity”; in the experiment on V3(6,6) Env pseudotype, “complete resistance”; in experiment [2], “complete resistance”.
